Where a SMILES comes first, the peptide text is derived from it. Bridges are numbered along the chain shown (N, C = ends). [ ]: non-standard residue; d: D form. dOrn = NCCC[C@@H](N)C(=O)O
What was measured:
E. coli BW25113 = assay: Time-dependent killing assay, E. coli; format: cell-based; conditions: E. coli BW25113, MHB, 5×MIC (160 μg/ml), 37°C, 0-24 h; mean of three biological replicates
Method: E. coli BW25113 and Klebsiella pneumoniae C1559 were grown overnight in 5 ml of cation-adjusted Mueller-Hinton Broth. The cultures were then inoculated into fresh medium to achieve an OD600 of 0.1, corresponding to a concentration of 10^8 CFU/ml. […] Samples were taken at 0 h, 3 h, 6 h, and 24 h post-incubation, plated on MHA plates, and incubated for 20–24 hours at 37°C. Colony counts were used to determine the log reduction in CFU/ml, comparing treated strains to untreated control samples.

[1] = system: 70S ribosome (50S subunit); assay: Cryo-EM of MKM-stalled ribosome complexes; format: binding, E. coli; conditions: ermBL MKM-SRC, 50 μM MKM
Method: MKM-ribosome complexes were generated by in vitro translation reactions in the PURExpress In vitro Protein Synthesis Kit (NEB) as described by the manufacturer. Complex formation reactions were carried out on ermBL toeprint mRNA template (Supplementary Table 7) in a 75 μl of reaction in presence of 50 μM MKM. The reaction was incubated for 15 min at 37 °C. The reaction volume was then split: 69 μl were used for complex generation and 6 μl were further analyzed by toeprinting. Ribosome complexes were isolated by centrifugation in 900 μl of sucrose gradient buffer (containing 40% sucrose, 50 mM HEPES-KOH, pH 7.4, 100 mM KOAc, 25 mM Mg(OAc)2 and 6 mM 2-mercaptoethanol) for 3 h at 4 °C with 80,000 g in a Optima Max-XP Tabletop Ultracentrifuge with a TLA 120.2 rotor. […]
Cryo-EM grids were prepared by applying 3.5 μl of MKM-70S complexes onto freshly glow-discharged Quantifoil R3.5/1 grids (copper, 300 mesh, with an additional 3 nm carbon layer; Product: C3-C19nCu30–01). […]
Movies were captured at a nominal magnification of 105,000×, corresponding to a calibrated pixel size of 0.832 Å (0.416 Å in super-resolution mode, binned 2× via EPU). […] Each exposure lasted 1.95 seconds in nanoprobe mode, during which 35 frames were recorded at a dose rate of ~1.14 electrons per frame per Å^2, resulting in a total accumulated dose of approximately 40 electrons per Å^2 (~15 e^−/px/s over vacuum). […]

K. pneumoniae C1559 = assay: Ex vivo efficacy in human blood; format: cell-based, Klebsiella pneumoniae; conditions: K. pneumoniae C1559, 10^5 cfu/ml, 5×MIC of MKM, six hours, 37°C; three biological experiments
Method: Human blood was procured from BioIVT (New York, USA). […] CFUs were determined by serial dilution and cultivation on agar.

C[C@@H](O)[C@@H]1NC(=O)[C@@H](CCCNC(=N)N)NC(=O)[C@@H](CCCNC(=N)N)NC(=O)[C@@H](CC(N)=O)NC(=O)[C@@H](NC(=O)[C@@H](Cc2ccccc2)NC(=O)[C@@H](CCCN)NC(=O)[C@H](N)CCCNC(=N)N)[C@@H](C)OC(=O)[C@H](Cc2c[nH]cn2)NC1=O [MKM, manikomycin A] (H-[dR][dOrn][dF]T[dN][dR][dR]TH; ester 4-C)
time-kill effect (E. coli BW25113): bactericidal
second binding site [1]: at the back of the 50S subunit
primary binding site ([1]; 2.4 Å focused refinement on 50S): located within the E site of the 50S subunit
bacterial eradication in human blood (K. pneumoniae C1559): complete eradication

— publication PMC12236907, “A Natural Depsipeptide Antibiotic that Targets the E site of the Bacterial Ribosome” (Research Square, 2025)
